Measured values from US11076594B2, “Pyrazolone compound or salt thereof, preparation method therefor, herbicide composition and use thereof” (QINGDAO KINGAGROOT CHEMICAL COMPOUNDS CO., LTD., priority 2015, dated 2021).

Columns and labels:
Format in all cases: in vivo
Conditions in all cases: post-emergence spray at 4-5 leaf stage, 250 g/ha active ingredient with 450 kg/ha water, rated after 3 weeks in greenhouse
Indian mallow = assay: weed control effect in post-emergence stage (Table 1); parameters: key: Level 10: completely dead; Level 9: above 95% growth control rate; Level 8: above 90% growth control rate; Level 7: above 80% growth control rate; Level 6: above 70% growth control rate; Level 5: above 60% growth control rate; Level 4: above 50% growth control rate; Level 3: above 20% growth control rate; Level 2: 5%-20% growth control rate; Level 1: below 5% growth control rate
Method in brief: (§1)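 Weed and crop seeds sown in soil-filled pots under 0.5-2 cm soil, greenhouse-grown, then sprayed at 4-5 leaf stage (2-3 weeks after sowing) with compound in acetone/Tween 80/water. Fresh weight growth control rate assessed after 3 weeks in greenhouse.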

bidens bipinnata = assay: as above; parameters: key: Level 10: completely dead; Level 9: above 95% growth control rate; Level 8: above 90% growth control rate; Level 7: above 80% growth control rate; Level 6: above 70% growth control rate; Level 5: above 60% growth control rate; Level 4: above 50% growth control rate; Level 3: above 20% growth control rate; Level 2: 5%-20% growth control rate; Level 1: below 5% growth control rate
Method in brief: as §1

crab grass = assay: as above; parameters: key: Level 10: completely dead; Level 9: above 95% growth control rate; Level 8: above 90% growth control rate; Level 7: above 80% growth control rate; Level 6: above 70% growth control rate; Level 5: above 60% growth control rate; Level 4: above 50% growth control rate; Level 3: above 20% growth control rate; Level 2: 5%-20% growth control rate; Level 1: below 5% growth control rate
Method in brief: as §1

echinochloa = assay: as above; parameters: key: Level 10: completely dead; Level 9: above 95% growth control rate; Level 8: above 90% growth control rate; Level 7: above 80% growth control rate; Level 6: above 70% growth control rate; Level 5: above 60% growth control rate; Level 4: above 50% growth control rate; Level 3: above 20% growth control rate; Level 2: 5%-20% growth control rate; Level 1: below 5% growth control rate
Method in brief: as §1

foxtail = assay: as above; parameters: key: Level 10: completely dead; Level 9: above 95% growth control rate; Level 8: above 90% growth control rate; Level 7: above 80% growth control rate; Level 6: above 70% growth control rate; Level 5: above 60% growth control rate; Level 4: above 50% growth control rate; Level 3: above 20% growth control rate; Level 2: 5%-20% growth control rate; Level 1: below 5% growth control rate
Method in brief: as §1

rorippa indica = assay: as above; parameters: key: Level 10: completely dead; Level 9: above 95% growth control rate; Level 8: above 90% growth control rate; Level 7: above 80% growth control rate; Level 6: above 70% growth control rate; Level 5: above 60% growth control rate; Level 4: above 50% growth control rate; Level 3: above 20% growth control rate; Level 2: 5%-20% growth control rate; Level 1: below 5% growth control rate
Method in brief: as §1

corn = assay: post-emergence stage experiment, crop (Table 1)
Method in brief: as §1

wheat = assay: post-emergence stage experiment, crop (Table 1)
Method in brief: as §1

rice = assay: post-emergence stage experiment, crop (Table 1); parameters: key: Level 10: completely dead; Level 9: above 95% growth control rate; Level 8: above 90% growth control rate; Level 7: above 80% growth control rate; Level 6: above 70% growth control rate; Level 5: above 60% growth control rate; Level 4: above 50% growth control rate; Level 3: above 20% growth control rate; Level 2: 5%-20% growth control rate; Level 1: below 5% growth control rate
Method in brief: as §1

| SMILES | weed control effect, Indian mallow (level) (Indian mallow) | weed control effect, Bidens bipinnata (level) (bidens bipinnata) | weed control effect, Crab grass (level) (crab grass) | weed control effect, Echinochloa (level) (echinochloa) | weed control effect, Green foxtail (level) (foxtail) | weed control effect, Rorippa indica (level) (rorippa indica) | effect on crop, Corn (level) (corn) | effect on crop, Wheat (level) (wheat) | effect on crop, Rice (level) (rice) |
| --- | --- | --- | --- | --- | --- | --- | --- | --- | --- |
| Cn1ncc(C(=O)c2ccc(C(F)(F)F)c(N3CCCCC3=O)c2Cl)c1O [Compound 029] | 7 (Level 7: above 80% growth control rate) | 7 (Level 7: above 80% growth control rate) | 7 (Level 7: above 80% growth control rate) | 5 (Level 5: above 60% growth control rate) | 9 (Level 9: above 95% growth control rate) | 7 (Level 7: above 80% growth control rate) | 7 (Level 7: above 80% growth control rate) | 3 (Level 3: above 20% growth control rate) | 1 (Level 1: below 5% growth control rate) |
| CC(=O)Oc1c(C(=O)c2ccc(C(F)(F)F)c(N3CCCCC3=O)c2Cl)cnn1C [Compound 030] | 6 (Level 6: above 70% growth control rate) | 5 (Level 5: above 60% growth control rate) | 8 (Level 8: above 90% growth control rate) | 5 (Level 5: above 60% growth control rate) | 9 (Level 9: above 95% growth control rate) | 10 | 9 (Level 9: above 95% growth control rate) | 4 (Level 4: above 50% growth control rate) | 1 (Level 1: below 5% growth control rate) |
| Cc1nn(C)cc1C(=O)Oc1c(C(=O)c2ccc(C(F)(F)F)c(N3CCCCC3=O)c2Cl)cnn1C [Compound 034] | 9 (Level 9: above 95% growth control rate) | 4 (Level 4: above 50% growth control rate) | 10 | 10 | 5 (Level 5: above 60% growth control rate) | 10 | 3 (Level 3: above 20% growth control rate) | 1 (Level 1: below 5% growth control rate) | 3 (Level 3: above 20% growth control rate) |
| CCn1nc(C2CC2)c(C(=O)c2ccc(C(F)(F)F)c(N3CCCCCC3=O)c2Cl)c1OC(=O)c1cn(C)nc1C [Compound 125] | 10 | 10 | 10 | 8 (Level 8: above 90% growth control rate) | 10 | 4 (Level 4: above 50% growth control rate) | 5 (Level 5: above 60% growth control rate) | 2 (Level 2: 5%-20% growth control rate) | 10 |
| Cn1ncc(C(=O)c2ccc(C(F)(F)F)c(-n3cccn3)c2Cl)c1O [Compound 064] | 10 | 7 (Level 7: above 80% growth control rate) | 7 (Level 7: above 80% growth control rate) | 5 (Level 5: above 60% growth control rate) | 10 | 9 (Level 9: above 95% growth control rate) | 7 (Level 7: above 80% growth control rate) | 3 (Level 3: above 20% growth control rate) | 2 (Level 2: 5%-20% growth control rate) |
